Measurements taken from patent US20230085307A1, “PYRIDAZINONE COMPOUND AND HERBICIDE” (NISSAN CHEMICAL CORPORATION, priority 2019, published 2023).

How the values were obtained:
[1] = test system: late watergrass; test: Test Example 1: herbicidal activity, application before weed generation under submerged conditions (Table 16, symbol A); assay type: in vivo, late watergrass (Echinochloa oryzicola); details: amount of applied herbicide 320 g/ha
Procedure, shortened: (§1)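 Submerged Wagner pots (alluvial soil, 4 cm water) sown with weed seeds and planted with 2.5-leaf rice seedlings; emulsifiable concentrate diluted in water applied to water surface on sowing day. Held in greenhouse at 25-30 °C; injury scored 0-5 by herbicidal rate after three weeks.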

[2] = test system: Japanese bulrush; test: Test Example 1: herbicidal activity, application before weed generation under submerged conditions (Table 16, symbol B); assay type: in vivo, Japanese bulrush (Schoenoplectus juncoides); details: amount of applied herbicide 320 g/ha
Procedure, shortened: as §1

[3] = test system: late watergrass; test: Test Example 2: herbicidal activity, application during weed generation under submerged conditions (Table 17, symbol A); assay type: in vivo, late watergrass (Echinochloa oryzicola); details: AAH 320 g/ha; application during weed generation, submerged conditions
Procedure, shortened: (§2)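 3-wk visual-criteria score after one water-surface dose. Emulsion formulation, water-diluted to set rate; applied at 1–2 leaf stage; alluvial soil, 4 cm standing water; seeds co-sown; greenhouse 25–30° C.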

[4] = test system: oval-leafed pondweed; test: Test Example 2: herbicidal activity, application during weed generation under submerged conditions (Table 17, symbol C); assay type: in vivo, oval-leafed pondweed (Monochoria vaginalis); details: AAH 320 g/ha; application during weed generation, submerged conditions
Procedure, shortened: as §2

[5] = test system: barnyard grass; test: Test Example 3: herbicidal effect by foliage application, Wagner pot (Table 18, symbol H); assay type: in vivo, barnyard grass (Echinochloa crus-galli)
Procedure, shortened: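 Plants were sown in alluvial soil held under 0.1–0.5 cm standing water and grown 14 days in a greenhouse at 25–30 °C. An emulsifiable formulation, water-diluted to the set dose, was then sprayed onto the foliage, and effects were scored three weeks later using previously defined criteria.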

[6] = test system: barnyard grass; test: Test Example 4: herbicidal effect by soil treatment (Table 19, symbol H); assay type: in vivo, barnyard grass (Echinochloa crus-galli); details: amount of applied herbicide 320 g/ha
Procedure, shortened: (§3)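 Step 1: sow seeds in sterilized diluvial soil, cover ~1.5 cm. Step 2: spray diluted emulsion onto soil surface at predetermined rate. Step 3: greenhouse, 25–30° C, three weeks. Step 4: grade effect on each plant by earlier criteria.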

[7] = test system: Italian ryegrass; test: Test Example 4: herbicidal effect by soil treatment (Table 19, symbol K); assay type: in vivo, Italian ryegrass (Lolium multiflorum); details: amount of applied herbicide 320 g/ha
Procedure, shortened: as §3

[8] = test system: windgrass; test: Test Example 4: herbicidal effect by soil treatment (Table 19, symbol L); assay type: in vivo, windgrass (Apera spica-venti); details: amount of applied herbicide 320 g/ha
Procedure, shortened: as §3

[9] = test system: velvetleaf; test: Test Example 4: herbicidal effect by soil treatment (Table 19, symbol M); assay type: in vivo, velvetleaf (Abutilon theophrasti); details: amount of applied herbicide 320 g/ha
Procedure, shortened: as §3

[10] = test system: lambsquarters; test: Test Example 4: herbicidal effect by soil treatment (Table 19, symbol O); assay type: in vivo, lambsquarters (Chenopodium album); details: amount of applied herbicide 320 g/ha
Procedure, shortened: as §3

[11] = test system: chickweed; test: Test Example 4: herbicidal effect by soil treatment (Table 19, symbol P); assay type: in vivo, common chickweed (Stellaria media); details: amount of applied herbicide 320 g/ha
Procedure, shortened: as §3

[12] = test system: persian speedwell; test: Test Example 4: herbicidal effect by soil treatment (Table 19, symbol R); assay type: in vivo, Persian speedwell (Veronica persica); details: amount of applied herbicide 320 g/ha
Procedure, shortened: as §3

[13] = test system: green foxtail; test: Test Example 5: herbicidal effect by foliage application, plastic box (Table 20, symbol G); assay type: in vivo, green foxtail (Setaria viridis); details: foliage application, 320 g/ha, three weeks after application
Procedure, shortened: (§4)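 Foliar spray test: emulsion formulation diluted in water to a set application rate, sprayed onto 14-day-old plants raised in diluvial soil at 25° C to 30° C under glass. Both herbicidal effect and crop effect rated visually three weeks later.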

[14] = test system: windgrass; test: Test Example 5: herbicidal effect by foliage application, plastic box (Table 20, symbol L); assay type: in vivo, windgrass (Apera spica-venti); details: foliage application, 320 g/ha, three weeks after application
Procedure, shortened: as §4

[15] = test system: redroot pigweed; test: Test Example 5: herbicidal effect by foliage application, plastic box (Table 20, symbol N); assay type: in vivo, redroot pigweed (Amaranthus retroflexus); details: foliage application, 320 g/ha, three weeks after application
Procedure, shortened: as §4

[16] = test system: chickweed; test: Test Example 5: herbicidal effect by foliage application, plastic box (Table 20, symbol P); assay type: in vivo, common chickweed (Stellaria media); details: foliage application, 320 g/ha, three weeks after application
Procedure, shortened: as §4

[17] = test system: persian speedwell; test: Test Example 5: herbicidal effect by foliage application, plastic box (Table 20, symbol R); assay type: in vivo, Persian speedwell (Veronica persica); details: foliage application, 320 g/ha, three weeks after application
Procedure, shortened: as §4

Compound	Herbicidal effect, A: late watergrass [1]	Herbicidal effect, B: Japanese bulrush [2]	herbicidal effect rating, A: late watergrass [3]	herbicidal effect rating, C: oval-leafed pondweed [4]	herbicidal effect on barnyard grass (H) ([5]; 320 g/ha)	H: barnyard grass, herbicidal effect grade [6]	K: Italian ryegrass, herbicidal effect grade [7]	L: windgrass, herbicidal effect grade [8]	M: velvetleaf, herbicidal effect grade [9]	O: lambsquarters, herbicidal effect grade [10]	P: chickweed, herbicidal effect grade [11]	R: persian speedwell, herbicidal effect grade [12]	G: green foxtail, herbicidal effect grade [13]	L: windgrass, herbicidal effect grade [14]	N: redroot pigweed, herbicidal effect grade [15]	P: chickweed, herbicidal effect grade [16]	R: persian speedwell, herbicidal effect grade [17]	herbicidal effect on H: barnyard grass ([5]; amount of applied herbicide 320 g/ha)
CCCC(=O)Oc1c(C)nn(C)c(=O)c1-c1c(-c2ccccc2)sc2cc(OC)ccc12 [3-062]	3 (Herbicidal rate of 40% or more and less than 70%)	4 (Herbicidal rate of 70% or more and less than 90%)	0 (Herbicidal rate of 5% or less (almost no effect))	3 (Herbicidal rate of 40% or more and less than 70%)	2 (Herbicidal rate of 20% or more and less than 40%)	0 (Herbicidal rate of 5% or less (almost no effect))	0 (Herbicidal rate of 5% or less (almost no effect))	0 (Herbicidal rate of 5% or less (almost no effect))	0 (Herbicidal rate of 5% or less (almost no effect))	0 (Herbicidal rate of 5% or less (almost no effect))	4 (Herbicidal rate of 70% or more and less than 90%)	4 (Herbicidal rate of 70% or more and less than 90%)	0 (Herbicidal rate of 5% or less (almost no effect))	0 (Herbicidal rate of 5% or less (almost no effect))	2 (Herbicidal rate of 20% or more and less than 40%)	5 (Herbicidal rate of 90% or more (almost completely withered))	3 (Herbicidal rate of 40% or more and less than 70%)	–
CCOC(=O)Oc1c(C)nn(C)c(=O)c1-c1c(-c2ccccc2OC)sc2cc(F)ccc12 [3-024]	3 (Herbicidal rate of 40% or more and less than 70%)	0 (Herbicidal rate of 5% or less (almost no effect))	2 (Herbicidal rate of 20% or more and less than 40%)	3 (Herbicidal rate of 40% or more and less than 70%)	–	3 (Herbicidal rate of 40% or more and less than 70%)	1 (Herbicidal rate of 5% or more and less than 20%)	3 (Herbicidal rate of 40% or more and less than 70%)	3 (Herbicidal rate of 40% or more and less than 70%)	4 (Herbicidal rate of 70% or more and less than 90%)	3 (Herbicidal rate of 40% or more and less than 70%)	0 (Herbicidal rate of 5% or less (almost no effect))	5 (Herbicidal rate of 90% or more (almost completely withered))	5 (Herbicidal rate of 90% or more (almost completely withered))	5 (Herbicidal rate of 90% or more (almost completely withered))	5 (Herbicidal rate of 90% or more (almost completely withered))	1 (Herbicidal rate of 5% or more and less than 20%)	5 (Herbicidal rate of 90% or more (almost completely withered))
